#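 Each compound was tested at five concentrations against cells in 96-well plates for 48 hours. TGI: concentration producing complete growth inhibition.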
# Assays:
# Test in all cases: inhibition of tumour cell growth, NCI panel, 48 h
# [1] = tested on: HT29 colon
# [2] = tested on: OVCAR-3 ovarian
# [3] = tested on: DLD-1 colon
# [4] = tested on: NCI-H522 lung
# [5] = tested on: MOLT-4 leukemia
# [6] = tested on: HOP-18 NSCLC
# [7] = tested on: HOP-62 NSCLC
# [8] = tested on: SF-268 CNS
# [9] = tested on: CCRF-CEM leukemia
# [10] = tested on: LXFL 529 NSCLC
# [11] = tested on: XF 498 CNS
# [12] = tested on: SF-295 CNS
# [13] = tested on: ACHN renal
# [14] = tested on: MALME-3M melanoma
# [15] = tested on: UO-31 renal
# [16] = tested on: KM12 colon
# [17] = tested on: TK-10 renal
# [18] = tested on: UACC-257 melanoma
# [19] = tested on: SF-539 CNS
# [20] = tested on: HL-60(TB) leukemia
# [21] = tested on: SR leukemia
# [22] = tested on: SK-MEL-2 melanoma
# [23] = tested on: LOX IMVI melanoma
# [24] = tested on: OVCAR-5 ovarian
# [25] = tested on: OVCAR-8 ovarian
# [26] = tested on: DMS 114 small cell lung
# [27] = tested on: HOP-92 NSCLC
# [28] = tested on: SW-620 colon
# [29] = tested on: NCI-H226 lung
# [30] = tested on: RXF 393 renal
# [31] = tested on: SNB-78 CNS
# [32] = tested on: HCC-2998 colon
# [33] = tested on: IGROV1 ovarian
# [34] = tested on: NCI-H23 lung
# [35] = tested on: SK-MEL-5 melanoma
# [36] = tested on: NCI-H460 lung
# [37] = tested on: M14 melanoma
# [38] = tested on: SN12C renal
# [39] = tested on: HCT-116 colon
# [40] = tested on: SNB-19 CNS
# [41] = tested on: CAKI-1 renal
# [42] = tested on: RXF-631 renal
# [43] = tested on: A549 NSCLC
# [44] = tested on: UACC-62 melanoma
# [45] = tested on: M19-MEL melanoma
# [46] = tested on: 786-0 renal
# [47] = tested on: EKVX NSCLC
# [48] = tested on: RPMI-8226 leukemia
# [49] = tested on: U251 CNS
# [50] = tested on: OVCAR-4 ovarian
# [51] = tested on: K-562 leukemia
# [52] = tested on: SK-OV-3 ovarian
# [53] = tested on: SK-MEL-28 melanoma
# [54] = tested on: HCT-15 colon
# [55] = tested on: KM20L2 colon
# [56] = tested on: SNB-75 CNS
# [57] = tested on: A498 renal
# [58] = tested on: COLO 205 colon
smiles,measurement,setting,value
CC(=O)/C(=C\c1ccccc1)C(=O)Nc1ccccc1,TGI,[1],> 100 µM
same,TGI,[2],> 100 µM
same,TGI,[3],> 100 µM
same,TGI,[4],> 100 µM
same,TGI,[5],> 100 µM
same,TGI,[6],> 100 µM
same,TGI,[7],> 100 µM
same,TGI,[8],> 100 µM
same,TGI,[9],> 100 µM
same,TGI,[10],> 100 µM
same,TGI,[11],> 100 µM
same,TGI,[12],> 100 µM
same,TGI,[13],> 100 µM
same,TGI,[14],> 100 µM
same,TGI,[15],> 100 µM
same,TGI,[16],> 100 µM
same,TGI,[17],> 100 µM
same,TGI,[18],> 100 µM
same,TGI,[19],> 100 µM
same,TGI,[20],> 100 µM
same,TGI,[21],> 100 µM
same,TGI,[22],> 100 µM
same,TGI,[23],> 100 µM
same,TGI,[24],> 100 µM
same,TGI,[25],> 100 µM
same,TGI,[26],> 100 µM
same,TGI,[27],> 100 µM
same,TGI,[28],> 100 µM
same,TGI,[29],> 100 µM
same,TGI,[30],> 100 µM
same,TGI,[31],> 100 µM
same,TGI,[32],> 100 µM
same,TGI,[33],> 100 µM
same,TGI,[34],> 100 µM
same,TGI,[35],> 100 µM
same,TGI,[36],> 100 µM
same,TGI,[37],> 100 µM
same,TGI,[38],> 100 µM
same,TGI,[39],> 100 µM
same,TGI,[40],> 100 µM
same,TGI,[41],> 100 µM
same,TGI,[42],> 100 µM
same,TGI,[43],> 100 µM
same,TGI,[44],> 100 µM
same,TGI,[45],> 100 µM
same,TGI,[46],> 100 µM
same,TGI,[47],> 100 µM
same,TGI,[48],> 100 µM
same,TGI,[49],> 100 µM
same,TGI,[50],> 100 µM
same,TGI,[51],> 100 µM
same,TGI,[52],> 100 µM
COC(=O)C(=O)C(CC(=O)Nc1c(C)cccc1C)C(=O)OC (stereo not drawn),TGI,[1],> 100 µM
same,TGI,[2],> 100 µM
same,TGI,[3],> 100 µM
same,TGI,[4],> 100 µM
same,TGI,[5],> 100 µM
same,TGI,[6],> 100 µM
same,TGI,[7],> 100 µM
same,TGI,[8],> 100 µM
same,TGI,[9],> 100 µM
same,TGI,[10],> 100 µM
same,TGI,[11],> 100 µM
same,TGI,[12],> 100 µM
same,TGI,[13],> 100 µM
same,TGI,[14],> 100 µM
same,TGI,[15],> 100 µM
same,TGI,[16],> 100 µM
same,TGI,[17],> 100 µM
same,TGI,[18],> 100 µM
same,TGI,[53],> 100 µM
same,TGI,[19],> 100 µM
same,TGI,[20],> 100 µM
same,TGI,[21],> 100 µM
same,TGI,[22],> 100 µM
same,TGI,[23],> 100 µM
same,TGI,[24],> 100 µM
same,TGI,[54],> 100 µM
same,TGI,[25],> 100 µM
same,TGI,[26],> 100 µM
same,TGI,[27],> 100 µM
same,TGI,[28],> 100 µM
same,TGI,[29],> 100 µM
same,TGI,[30],> 100 µM
same,TGI,[31],> 100 µM
same,TGI,[32],> 100 µM
same,TGI,[55],> 100 µM
same,TGI,[33],> 100 µM
same,TGI,[34],> 100 µM
same,TGI,[35],> 100 µM
same,TGI,[36],> 100 µM
same,TGI,[37],> 100 µM
same,TGI,[38],> 100 µM
same,TGI,[39],> 100 µM
same,TGI,[40],> 100 µM
same,TGI,[41],> 100 µM
same,TGI,[42],> 100 µM
same,TGI,[43],> 100 µM
same,TGI,[44],> 100 µM
same,TGI,[45],> 100 µM
same,TGI,[46],> 100 µM
same,TGI,[47],> 100 µM
same,TGI,[48],> 100 µM
same,TGI,[49],> 100 µM
same,TGI,[50],> 100 µM
same,TGI,[51],> 100 µM
same,TGI,[52],> 100 µM
NC(=O)/C(=N\NC(=O)c1cc2ccccc2cc1O)C1C(=O)N(c2ccccc2)N=C1N (stereo not drawn),TGI,[1],> 100 µM
same,TGI,[2],> 100 µM
same,TGI,[3],> 100 µM
same,TGI,[5],94.5 µM
same,TGI,[6],> 100 µM
same,TGI,[7],> 100 µM
same,TGI,[8],> 100 µM
same,TGI,[9],87.6 µM
same,TGI,[10],> 100 µM
same,TGI,[11],> 100 µM
same,TGI,[56],> 100 µM
same,TGI,[12],> 100 µM
same,TGI,[13],> 100 µM
same,TGI,[14],> 100 µM
same,TGI,[15],> 100 µM
same,TGI,[16],> 100 µM
same,TGI,[57],37.5 µM
same,TGI,[17],> 100 µM
same,TGI,[18],65 µM
same,TGI,[53],> 100 µM
same,TGI,[20],47.2 µM
same,TGI,[22],83 µM
same,TGI,[23],> 100 µM
same,TGI,[24],54 µM
same,TGI,[25],> 100 µM
same,TGI,[26],53.2 µM
same,TGI,[27],94.6 µM
same,TGI,[28],> 100 µM
same,TGI,[29],> 100 µM
same,TGI,[30],> 100 µM
same,TGI,[31],> 100 µM
same,TGI,[32],> 100 µM
same,TGI,[55],> 100 µM
same,TGI,[33],> 100 µM
same,TGI,[34],56.5 µM
same,TGI,[35],37.2 µM
same,TGI,[36],> 100 µM
same,TGI,[37],> 100 µM
same,TGI,[38],> 100 µM
same,TGI,[39],> 100 µM
same,TGI,[40],> 100 µM
same,TGI,[42],> 100 µM
same,TGI,[43],> 100 µM
same,TGI,[44],35.9 µM
same,TGI,[45],> 100 µM
same,TGI,[46],> 100 µM
same,TGI,[47],> 100 µM
same,TGI,[48],> 100 µM
same,TGI,[49],> 100 µM
same,TGI,[50],> 100 µM
same,TGI,[58],> 100 µM

# Source: PubChem BioAssay (NCI)
